Test results as given in patent US12516046B2, “2-oxo-oxazolidine-5-carboxamides as NAV1.8 inhibitors” (Merck Sharp & Dohme LLC, priority 2020, dated 2026).

Each molecule was assayed against human Nav1.8 (Homo sapiens (Human), UniProt Q9Y5Y9) (assay: Nav1.8 Qube® Assay (automated 384-well patch-clamp)). Conditions: human Nav1.8 channels stably expressed in HEK 293 cells.
Type: cell-based
Excerpt: Qube® Assay Experimental Procedure

Chain of human Nav1.8 (Q9Y5Y9 whole entry): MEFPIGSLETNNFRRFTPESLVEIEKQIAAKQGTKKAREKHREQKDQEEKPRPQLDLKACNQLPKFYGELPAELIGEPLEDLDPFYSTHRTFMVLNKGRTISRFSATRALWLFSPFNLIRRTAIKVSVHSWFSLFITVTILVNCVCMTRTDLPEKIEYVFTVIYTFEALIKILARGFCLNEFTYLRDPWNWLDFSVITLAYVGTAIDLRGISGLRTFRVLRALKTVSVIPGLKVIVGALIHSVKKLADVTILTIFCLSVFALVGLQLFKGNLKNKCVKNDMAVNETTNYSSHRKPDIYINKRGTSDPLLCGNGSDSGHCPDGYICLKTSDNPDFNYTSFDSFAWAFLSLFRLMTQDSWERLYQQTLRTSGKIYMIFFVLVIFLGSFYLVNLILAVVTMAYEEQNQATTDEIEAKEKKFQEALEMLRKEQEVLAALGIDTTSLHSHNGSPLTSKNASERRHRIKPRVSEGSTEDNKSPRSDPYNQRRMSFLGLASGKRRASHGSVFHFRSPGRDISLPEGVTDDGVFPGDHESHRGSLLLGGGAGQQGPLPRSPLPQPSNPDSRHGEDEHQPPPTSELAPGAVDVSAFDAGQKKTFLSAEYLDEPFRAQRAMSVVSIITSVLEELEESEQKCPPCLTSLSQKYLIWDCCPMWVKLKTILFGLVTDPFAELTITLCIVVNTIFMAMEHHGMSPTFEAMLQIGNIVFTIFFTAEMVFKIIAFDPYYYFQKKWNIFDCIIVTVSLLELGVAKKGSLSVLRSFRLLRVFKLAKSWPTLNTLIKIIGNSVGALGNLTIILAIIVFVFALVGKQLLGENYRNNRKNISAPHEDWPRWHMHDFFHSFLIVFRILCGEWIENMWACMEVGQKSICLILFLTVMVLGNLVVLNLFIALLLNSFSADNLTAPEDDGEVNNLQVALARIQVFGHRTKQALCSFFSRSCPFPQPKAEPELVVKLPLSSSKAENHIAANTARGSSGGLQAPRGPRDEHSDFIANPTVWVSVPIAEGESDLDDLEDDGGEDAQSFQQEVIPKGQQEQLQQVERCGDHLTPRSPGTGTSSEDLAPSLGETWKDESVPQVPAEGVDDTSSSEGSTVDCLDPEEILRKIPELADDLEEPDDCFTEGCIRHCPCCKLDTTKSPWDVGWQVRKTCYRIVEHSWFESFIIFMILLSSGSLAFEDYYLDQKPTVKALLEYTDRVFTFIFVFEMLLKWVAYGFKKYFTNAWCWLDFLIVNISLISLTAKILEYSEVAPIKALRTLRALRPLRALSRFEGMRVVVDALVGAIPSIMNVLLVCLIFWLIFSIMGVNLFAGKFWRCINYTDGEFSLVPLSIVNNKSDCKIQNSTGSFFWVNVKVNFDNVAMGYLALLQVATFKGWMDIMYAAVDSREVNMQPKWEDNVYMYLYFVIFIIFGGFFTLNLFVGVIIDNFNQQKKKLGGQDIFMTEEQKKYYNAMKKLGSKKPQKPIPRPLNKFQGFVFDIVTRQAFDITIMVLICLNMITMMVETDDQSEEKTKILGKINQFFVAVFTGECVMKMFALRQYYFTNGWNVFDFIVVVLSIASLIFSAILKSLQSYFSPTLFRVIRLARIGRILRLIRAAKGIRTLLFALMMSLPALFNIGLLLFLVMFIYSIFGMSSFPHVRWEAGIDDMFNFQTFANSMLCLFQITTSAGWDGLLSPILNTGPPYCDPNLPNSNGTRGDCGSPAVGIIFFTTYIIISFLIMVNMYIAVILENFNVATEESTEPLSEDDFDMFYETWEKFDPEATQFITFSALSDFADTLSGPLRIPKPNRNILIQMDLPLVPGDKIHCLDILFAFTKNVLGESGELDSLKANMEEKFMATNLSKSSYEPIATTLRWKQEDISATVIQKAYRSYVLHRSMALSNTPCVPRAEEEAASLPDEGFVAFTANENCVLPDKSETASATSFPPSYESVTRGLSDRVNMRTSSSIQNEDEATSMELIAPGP

IC50 [nM] | SMILES
129 | O=C1NC[C@@H](C(=O)NC(c2ccc(C(F)(F)F)nc2)c2csc(C(F)(F)F)n2)O1 (stereo partly drawn) [Example 64, (5S)-2-oxo-N-((6-(trifluoromethyl)pyridin-3-yl)(2-(trifluoromethyl)thiazol-4-yl)methyl)oxazolidine-5-carboxamide]
2030 | CC1(C(=O)NC(c2ccc(Cl)cc2)c2ccc(Cl)cc2)CNC(=O)O1 (single isomer, unassigned) [Example 7B, (R or S)—N-(bis(4-chlorophenyl)methyl)-5-methyl-2-oxooxazolidine-5-carboxamide]
1.2 | O=C1NC[C@@H](C(=O)NC(c2ccc(OC(F)(F)F)c(Cl)c2)c2cnn(C(F)(F)F)c2)O1 (single isomer, unassigned) [Example 53B, (S)-N-((R or S)-(3-chloro-4-(trifluoro-methoxy)phenyl)(1-(trifluoromethyl)-1H-pyrazol-4-yl)methyl)-2-oxooxazolidine-5-carboxamide]
1.8 | Cc1cc(C(NC(=O)[C@@H]2CNC(=O)O2)c2ccc(Cl)cc2)ccc1Cl (single isomer, unassigned) [Example 46B, (S)-N-((R or S)-(4-chloro-3-methylphenyl)(4-chlorophenyl)methyl)-2-oxooxazolidine-5-carboxamide]
5720 | O=C1NC[C@@H](C(=O)NC(c2ccc(Cl)cc2)C2CCC(F)(F)C2)O1 (single isomer, unassigned) [Example 57B, (S)-N-((R or S)-(4-chlorophenyl)((R or S)-3,3-difluorocyclopentyl)methyl)-2-oxooxazolidine-5-carboxamide]
2.1 | O=C1NC[C@@H](C(=O)NC(c2ccc(F)c(Cl)c2)c2ccc(F)c(C(F)(F)F)n2)O1 (stereo partly drawn) [Example 38, (5S)-N-((3-chloro-4-fluorophenyl)(5-fluoro-6-(trifluoromethyl)pyridin-2-yl)methyl)-2-oxooxazolidine-5-carboxamide]
0.9 | O=C1NC[C@@H](C(=O)NC(c2ccc(Cl)cc2)c2ccc(F)c(Cl)c2)O1 (single isomer, unassigned) [Example 19A, (S)—N—((R or S)-(3-chloro-4-fluorophenyl)(4-chlorophenyl)methyl)-2-oxooxazolidine-5-carboxamide]
3.8 | O=C1NC[C@@H](C(=O)NC(c2ccc(Cl)cc2)c2ccc(Cl)c(C(F)(F)F)c2)O1 (single isomer, unassigned) [Example 35B, (S)-N-((R or S)-(4-chloro-3-(trifluoromethyl)phenyl)(4-chlorophenyl)methyl)-2-oxooxazolidine-5-carboxamide]
233 | O=C1NC[C@@H](C(=O)NC(c2ccc(Cl)cc2)c2ccc(F)cn2)O1 (single isomer, unassigned) [Example 23B, (S)-N-((R or S)-(4-chlorophenyl)(5-fluoropyridin-2-yl)methyl)-2-oxooxazolidine-5-carboxamide]
326 | O=C1NC[C@@H](C(=O)NC(c2cccc(Cl)c2)C2CC2c2ccccc2)O1 (single isomer, unassigned) [Example 26A, (5S)-N-((R or S)-(3-chlorophenyl) ((cis or trans)-2-phenylcyclopropyl)methyl)-2-oxooxazolidine-5-carboxamide]
272 | O=C1NC[C@@H](C(=O)NC(c2ccc(Cl)cc2)c2coc(C(F)(F)F)n2)O1 (single isomer, unassigned) [Example 18B, (S)-N-((R or S)-(4-chlorophenyl)(2-(trifluoromethyl)oxazol-4-yl)methyl)-2-oxooxazolidine-5-carboxamide]
21 | COc1ccc(Cl)cc1C(NC(=O)[C@@H]1CNC(=O)O1)c1cccc(Cl)c1 (single isomer, unassigned) [Example 28A, (S)-N-((R or S)-(5-chloro-2-methoxyphenyl)(3-chlorophenyl)methyl)-2-oxooxazolidine-5-carboxamide]
265 | O=C1NC[C@@H](C(=O)NC(c2ccc(F)c(Cl)c2)c2cc(C(F)(F)F)[nH]n2)O1 (single isomer, unassigned) [Example 5B, (S)—N—((R or S)-(3-chloro-4-fluorophenyl)(5-(trifluoromethyl)-1H-pyrazol-3-yl)methyl)-2-oxooxazolidine-5-carboxamide]
133 | O=C1NC[C@@H](C(=O)NC(c2ccc(Cl)cc2)C23CCC(CC2)C3)O1 (single isomer, unassigned) [Example 3A, (S)-N-((R or S)-bicyclo[2.2.1]heptan-1-yl(4-chlorophenyl)methyl)-2-oxooxazolidine-5-carboxamide]
5.4 | O=C1NC[C@@H](C(=O)NC(c2ccc(F)c(Cl)c2F)[C@H]2C[C@H](C(F)(F)F)C2)O1 (single isomer, unassigned) [Example 70, (S)—N—((R or S)-(3-chloro-2,4-difluorophenyl)((trans)-3-(trifluoromethyl)cyclobutyl)methyl)-2-oxooxazolidine-5-carboxamide]
1460 | O=C1NC[C@@H](C(=O)NC(c2ccc(Cl)cc2)C23CCC(CC2)C3)O1 (single isomer, unassigned) [Example 3B, (S)-N-((R or S)-bicyclo[2.2.1]heptan-1-yl(4-chlorophenyl)methyl)-2-oxooxazolidine-5-carboxamide]

IC50 [nM] | SMILES
272 | O=C1NC[C@@H](C(=O)NC(c2ccc(Cl)cc2)C2CCN(CC(F)(F)F)CC2)O1 (single isomer, unassigned) [Example 42B, (S)-N-((R or S)-(4-chlorophenyl)(1-(2,2,2-trifluoroethyl)piperidin-4-yl)methyl)-2-oxooxazolidine-5-carboxamide]
1.6 | O=C1NC[C@@H](C(=O)NC(c2ccc(OCC(F)(F)F)nc2)c2ccc(F)c(Cl)c2F)O1 (single isomer, unassigned) [Example 50A, (S)—N—((R or S)-(3-chloro-2,4-difluorophenyl)(6-(2,2,2-trifluoroethoxy)pyridin-3-yl)methyl)-2-oxo-oxazolidine-5-carboxamide]
4.6 | Cn1nc(C(F)(F)F)cc1C(NC(=O)[C@@H]1CNC(=O)O1)c1ccc(F)c(Cl)c1 (single isomer, unassigned) [Example 61A, (S)-N-((R or S)-(3-chloro-4-fluorophenyl)(1-methyl-3-(trifluoromethyl)-1H-pyrazol-5-yl)methyl)-2-oxooxazolidine-5-carboxamide]
80 | O=C1NC[C@@H](C(=O)NC(c2ccc(Cl)cc2)c2ccc(OCC(F)(F)F)nn2)O1 (single isomer, unassigned) [Example 73B, (S)-N-((R or S)-(4-chlorophenyl)(6-(2,2,2-trifluoroethoxy)pyridazin-3-yl)methyl)-2-oxooxazolidine-5-carboxamide]
21 | O=C1NC[C@@H](C(=O)NC(CC2CCCCC2)c2ccc(F)c(Cl)c2F)O1 (stereo partly drawn) [Example 67, (S)-N-(1-(3-chloro-2,4-difluorophenyl)-2-cyclohexylethyl)-2-oxooxazolidine-5-carboxamide]
19 | COc1cc(Cl)ccc1C(NC(=O)[C@@H]1CNC(=O)O1)c1ccc(F)cc1 (single isomer, unassigned) [Example 55A, (S)—N—((R or S)-(4-chloro-2-methoxyphenyl)(4-fluorophenyl)-methyl)-2-oxooxazolidine-5-carboxamide]
397 | O=C1NC[C@@H](C(=O)NC(c2ccc(Cl)cc2)c2nc(C(F)(F)F)c[nH]2)O1 (stereo partly drawn) [Example 40, (5S)-N-((4-chlorophenyl)(4-(trifluoromethyl)-1H-imidazol-2-yl)methyl)-2-oxooxazolidine-5-carboxamide]
54 | O=C1NC[C@@H](C(=O)NC(c2ccc(F)c(Cl)c2)c2cccc(C(F)(F)F)n2)O1 (single isomer, unassigned) [Example 49B, (S)-N-((R or S)-(3-chloro-4-fluorophenyl)(6-(trifluoromethyl)pyridin-2-yl)methyl)-2-oxooxazolidine-5-carboxamide]
32 | O=C1NC[C@@H](C(=O)NC(c2ccccc2)c2cc(Cl)cc(Cl)c2)O1 (stereo partly drawn) [Example 20, (5S)-N-((3,5-dichlorophenyl) (phenyl)methyl)-2-oxooxazolidine-5-carboxamide]
936 | O=C1NC[C@@H](C(=O)NC(c2ccc(Cl)cc2)C2CCN(CC(F)(F)F)CC2)O1 (single isomer, unassigned) [Example 42A, (S)-N-((R or S)-(4-chlorophenyl)(1-(2,2,2-trifluoroethyl)piperidin-4-yl)methyl)-2-oxooxazolidine-5-carboxamide]
239 | O=C1NC[C@@H](C(=O)NC(c2ccc(Cl)cc2)c2ccc(F)c(C(F)F)n2)O1 (single isomer, unassigned) [Example 16A]
11 | O=C1NC[C@@H](C(=O)NC(c2ccc(F)c(Cl)c2F)[C@@H]2C[C@@H]3[C@H](C2)C3(F)F)O1 (single isomer, unassigned) [Example 74A, (S)-N-((R or S)-(3-chloro-2,4-difluorophenyl) ((trans)-6,6-difluorobicyclo[3.1.0]hexan-3-yl)methyl)-2-oxooxazolidine-5-carboxamide]
2.7 | O=C1NC[C@@H](C(=O)NC(c2ccc(OC(F)F)cc2)c2ccc(F)c(Cl)c2)O1 (single isomer, unassigned) [Example 48A, (S)-N-((R or S)-(3-chloro-4-fluorophenyl)(4-(difluoromethoxy)phenyl)methyl)-2-oxooxazolidine-5-carboxamide]
130 | COc1ccc(C(NC(=O)[C@@H]2CNC(=O)O2)c2ccc(Cl)cc2)cn1 (single isomer, unassigned) [Example 22A, (S)-N-((R or S)-(4-chlorophenyl)(6-methoxypyridin-3-yl)methyl)-2-oxooxazolidine-5-carboxamide]
246 | O=C1NC[C@@H](C(=O)NC(Cc2ccc(Cl)cc2)c2ccc(OC(F)(F)F)cc2)O1 (stereo partly drawn) [Example 68, (5S)-N-(2-(4-chlorophenyl)-1-(4-(trifluoromethoxy)phenyl)ethyl)-2-oxooxazolidine-5-carboxamide]
5.3 | O=C1NC[C@@H](C(=O)NC(c2ccc(OC(F)(F)F)c(Cl)c2)c2coc(C(F)(F)F)n2)O1 (single isomer, unassigned) [Example 51A, (S)-N-((R or S)-(3-chloro-4-(trifluoro-methoxy)phenyl)(2-(trifluoromethyl)oxazol-4-yl)methyl)-2-oxooxazolidine-5-carboxamide]
